Measurements: patent US9321737B2, “CDK8-CDK19 selective inhibitors and their use in anti-metastatic and chemopreventative methods for cancer” (SENEX BIOTECHNOLOGY INC, priority 2012, dated 2016)

Assays:
[1] = Solubility in 20% propylene glycol; type: physicochemical; conditions: 1 mM, 40° C., 30 min, centrifuged, OD reading
Protocol: (§1) The compounds were also tested for solubility in 20% propylene glycol and in water, as follows. Compounds (dry powder) were dissolved in 20% propylene glycol at a concentration of 1 mM at a temperature of 40° C. with occasional vortexing. After 30 min, the solution was centrifuged at 10,000×g for 5 min. Serial dilutions of the cleared supernatant were prepared and used to measure the compound concentrations through OD reading, relative to 1 μM standard solution of the same compound. The results of the measurement were expressed as % solubility of the compound at 1 mM in 20% propylene glycol. To determine water solubility, the compounds (dry powder) were initially dissolved in water at a concentration of 100 mM at a temperature of 40° C. with occasional vortexing. After 30 min, the solution was centrifuged at 10,000×g for 5 min, and the formation of an insoluble pellet was monitored. At subsequent steps, the compound was attempted to be dissolved at lower concentrations, until no pellet was observed after centrifugation, indicating complete solution of the compound.

[2] = tested on: CDKI pathway (CMV promoter stimulation by p21) in HT1080 fibrosarcoma cells; assay: CDKI pathway inhibition cellular assay (CMV-GFP induction by IPTG-inducible p21); type: cell-based, human; conditions: IPTG-induced p21, CMV-GFP / Hoechst 33342, read-out: Cell-based Assay EC50
Protocol: The compounds described below are shown in Table 1 and the structures of some novel compounds according to the invention are shown in FIG. 1. […] All the compounds were tested for the ability to inhibit the CDKI pathway in a cellular assay described in our previous patent application PCT/US06/01046. This assay is based on the induction of green fluorescent protein (GFP) expression from the cytomegalovirus (CMV) promoter in human HT1080 fibrosarcoma cells that express CDKI p21 from an isopropyl-β-thio-galactoside (IPTG)-inducible promoter. The compound activity as a CDKI pathway inhibitor is measured by its ability to prevent the stimulation of the CMV promoter upon the addition of p21-inducing IPTG. CMV promoter activity is measured by the ratio of GFP fluorescence to the relative cell number, as determined by staining cellular DNA with Hoechst 33342.

[3] = Water solubility; type: physicochemical; conditions: 40° C., 30 min, no pellet after centrifugation
Protocol: as §1

[4] = tested on: MDA-MB-468; assay: MDA-MB-468 TNBC xenograft model; type: in vivo, female nude mice; conditions: 40 mg/kg Senexin B daily i.p.; 4 mg/kg doxorubicin two injections two weeks apart
Protocol: Female nude mice were inoculated with MDA-MB-468 cells, and once palpable tumors were formed, mice were randomized into 4 groups, treated daily i.p. with vehicle alone (n=12), 40 mg/kg Senexin B, two injections with 4 mg/kg doxorubicin two weeks apart, or doxorubicin combined with Senexin B (n=8 in each of the latter groups).

[5] = tested on: MDA-MB-468 TNBC tumor invasion; assay: Histological analysis of MDA-MB-468 tumor invasion (H&E); type: in vivo, female nude mice; conditions: tumors from FIG. 15B experiment
Text: At the end of the experiment shown in FIG. 15B, mice were sacrificed, tumors were removed, formalin fixed, sectioned and processed for histological analysis after H&E staining.

[6] = tested on: MDA-MB-231; assay: MDA-MB-231 orthotopic TNBC xenograft; type: in vivo, female SCID mice; conditions: 1 mg/kg doxorubicin single dose, three rounds
Protocol: Once tumors were formed, mice were randomized into 4 cohorts (n=10) and treated, at 7-10 day intervals, with three rounds of: vehicle (5 daily doses), 1 mg/kg doxorubicin (single dose), 40 mg/kg Senexin B (5 daily doses) or doxorubicin (single dose)+Senexin B (5 daily doses).

SMILES	% solubility at 1 mM in 20% propylene glycol [1] [%]	EC50 [2] [µM]	Water Solubility [3]	tumor growth (tumor volumes after 30 days of treatment) [4]	invasive or non-invasive tumor growth [5]	lower body weight than control mice [6]
COCCNC(=O)c1ccc(CCNc2ncnc3ccc(C#N)cc23)cc1 [SNX2-1-150]	100	2.2	Soluble at 10 mM			
N#Cc1ccc2ncnc(NCCc3ccc(C(=O)N4CCCCC4)cc3)c2c1 [SNX2-1-152]	100	3.83				
CN1CCN(C(=O)c2ccc(CCNc3ncnc4ccc(C#N)cc34)cc2)CC1 [SNX2-1-153]	100	5.21	Soluble at 10 mM			
CN(C)CCNC(=O)c1ccc(CCNc2ncnc3ccc(C#N)cc23)cc1 [SNX2-1-155]	100	4.57	Soluble at 10 mM			
COc1cccc2c1C(=O)c1c(O)c3c(c(O)c1C2=O)C[C@@](O)(C(=O)CO)C[C@@H]3O[C@H]1C[C@H](N)[C@H](O)[C@H](C)O1 [doxorubicin, reference compound]				significantly slowed down the tumor growth	displayed invasive growth	about 15%
